According to patent US20240002401A1, “IMIDAZOTHIAZOLE COMPOUNDS, PHARMACEUTICAL COMPOSITIONS, AND USES THEREOF” (GUANGZHOU HENOVCOM BIOSCIENCE CO., LTD., priority 2020, published 2024):

Tests used:
ATX = ATX (Homo sapiens, UniProt Q13822); experiment: Enzyme activity screening in vitro with LPC as substrate (Amplex Red fluorescence); assay type: biochemical; settings: inhibitory activity against ATX
Description: Analysis In Vitro: LPC was Used as Substrate for Screening Enzyme Activity
Principle: Lysophosphatidylcholine (LPC) as substrate is hydrolyzed by using the activity of lysoPLD enzyme, to produce lysophosphatidic acid (LPA) and choline, which is oxidized to produce H2O2 under the action of choline oxidase. In presence of horse radish peroxidase (HPR), Amplex Red reagent is reacted with H2O2 in a quantitative chemistry ratio of 1 to 1, to produce strong fluorescence products, which are detected by a fluorescent quantitative test.
20 μl of the above mixed solution 1 was added to each hole of an experiment board, […]. The compounds diluted with DMSO were transferred into an experiment board with Echo550. The reaction buffer solution was used for preparing a mixed solution 2 of […] LPC and 400 μM Amplex Red in a final concentration. 20 μl of the above mixed solution 2 was added to each hole of the experiment board. After addition, the experiment board was shook for 30 seconds on a shaker, and incubated for 30 minutes. Envision was used to read the fluorescence signals with an exciting light at 530 nm and emitted light at 590 nm.

[1] = Pharmacokinetics test in mice; assay type: in vivo; settings: male SD mice; for F: absolute bioavailability, oral 5 mg/kg vs intravenous 1 mg/kg; for AUC / half-life: mouse, plasma
Description: Pharmacokinetics Test in Mice
Male SD mice were selected for pharmacokinetics test study, plasma concentration at different time points were quantitatively determined by LC/MS/MS method after the mice were intravenously injected and orally administrated with the compounds to be tested, thereby evaluating pharmacokinetics characteristic of the compounds to be tested in SD mice.
SD mice (free food and drink, 6 to 8 weeks old) were intravenously administrated via a foot injection with a clear solution of the compounds to be tested, alternatively, SD mice (free food and drink, 6 to 8 week old) were intragastrically administrated with a suspension of the compounds to be tested. Blood samples were collected from the tail veins of the mice 0.083, 0.25, 0.5, 1, 2, 4, 6, 8, 10, and 24 hours after administration, and each sampling was 0.15 mL. All collected blood samples were placed into centrifuge tubes with EDTA-K2, turned upside and down to mix the anticoagulant with the blood well. The plasma was separated by centrifugation at 1500 g for 10 min at 4° C. within […]. The plasma sample was transferred into a new centrifuge tube and stored at −90° C. to −60° C. until the analysis was performed. LC-MS/MS was used to measure the blood concentration of the compounds to be tested of the present disclosure, and the pharmacokinetic parameters, as well as absolute bioavailability, were calculated by a non-compartment model in Pharsight Phoenix 8.0 software, as shown in Table 2.

[2] = Intravenous injection (1 mg/kg)

Compound	IC50 (ATX) [nM]	F [1] [%]	AUC [1, 2] [ng·h/mL]	half-life [1, 2] [h]	AUC ([1]; Oral administration (5 mg/kg)) [ng·h/mL]	half-life ([1]; Oral administration (5 mg/kg)) [h]
CCc1nc2sc(C3CCN(CC(=O)N4CCOCC4)CC3)cn2c1N(CC)c1nc(-c2ccc(F)cc2)c(C#N)s1 [Embodiment 22, 2-(ethyl(6-ethyl-2-(1-(2-morpholino-2-oxoethyl)piperidin-4-yl)imidazo[2,1-b]thiazol-5-yl)amino)-4-(4-fluorophenyl)thiazole-5-carbonitrile]	0.01 to 100	39	649	4.56	1260	4.19
CCc1nc2sc(C3CCN(CC(=O)N4CC(O)C4)CC3)cn2c1N(c1nc(-c2ccc(F)cc2)c(C#N)s1)C1CC1 [Embodiment 24, 2-(cyclopropyl(6-ethyl-2-(1-(2-(3-hydroxyazetidin-1-yl)-2-oxoethyl)piperidin-4-yl)imidazo[2,1-b]thiazol-5-yl)amino)-4-(4-fluorophenyl)thiazole-5-carbonitrile]	100 to 500	43	1170	2.14	2520	2.23
CCc1nc2sc(C3CCN(CC(=O)N4CC(O)C4)CC3)cn2c1N(CC1CC1)c1nc(-c2ccc(F)cc2)c(C#N)s1 [Embodiment 2, 2-(cyclopropylmethyl(6-ethyl-2-(1-(2-(3-hydroxyazetidin-1-yl)-2-oxoethyl)piperidin-4-yl)imidazo[2,1-b]thiazol-5-yl)amino)-4-(4-fluorophenyl) thiazole-5-carbonitrile]	0.01 to 100	54	972	2.84	2720	3.63
CCc1nc2sc(C3CCN(CC(=O)NC4COC4)CC3)cn2c1N(CC)c1nc(-c2ccc(F)cc2)c(C#N)s1 [Embodiment 21, 2-(4-(5-((5-cyano-4-(4-fluorophenyl)thiazol-2-yl)(ethyl)amino)-6-ethylimidazo[2,1-b]thiazol-2-yl)piperidin-1-yl)-N-(3-oxacyclobutyl)acetamide]	0.01 to 100	114	1040	3.32	5500	2.61

Now from value to molecule:

IC50 (ATX) [nM]	F [1] [%]	AUC [1, 2] [ng·h/mL]	half-life [1, 2] [h]	AUC ([1]; Oral administration (5 mg/kg)) [ng·h/mL]	half-life ([1]; Oral administration (5 mg/kg)) [h]	Compound
0.01 to 100	70	1670	4.18	5800	3.21	CCc1nc2sc(C3CCN(CC(=O)N4CC(O)C4)CC3)cn2c1N(CC)c1nc(-c2ccc(F)cc2)c(C#N)s1 [Embodiment 1, 2-(ethyl(6-ethyl-2-(1-(2-(3-hydroxyazetidin-1-yl)-2-oxoethyl)piperidin-4-yl)imidazo[2,1-b]thiazol-5-yl)amino)-4-(4-fluorophenyl)thiazole-5-carbonitrile]
0.01 to 100	65	1480	3.97	4810	2.81	[2H]C([2H])([2H])C([2H])([2H])N(c1nc(-c2ccc(F)cc2)c(C#N)s1)c1c(CC)nc2sc(C3CCN(CC(=O)N4CC(O)C4)CC3)cn12 [Embodiment 7, 2-((ethyl-d5)(6-ethyl-2-(1-(2-(3-hydroxyazetidin-1-yl)-2-oxoethyl)piperidin-4-yl)imidazo[2,1-b]thiazol-5-yl)amino)-4-(4-fluorophenyl)thiazole-5-carbonitrile]
